The text below walks through data of US9034876B2, “Treatment of chronic inflammation with a 1,2,4-triazolo [1,5a] pyridine derivative” (Cephalon, Inc., priority 2010, dated 2015).

One data set concerns panel of 402 kinases. Briefly: Kinome binding assays, selectivity panel. Particulars: test concentration 1 μM.
The target of another data set is Src kinase (Homo sapiens, UniProt P12931). Briefly: Kinase profiling panel, Src. As to conditions: 1 μM. Format: binding.
The subject of data set [1] is JAK2 in HEL92 cells (phosphorylation of STAT5). Briefly: Inhibition of STAT5 phosphorylation in HEL92 cells (western blot). The class given is cell-based. Particulars: 1 hour, serum-free media.
Data set [2] relates to JAK2 (STAT5/pSTAT5 in HEL92 tumor extracts). Description: In vivo pharmacodynamic assay, HEL92 tumor extracts. Also on record: species or system mice. Particulars: 55 mg/kg p.o., 2 hours.
Source text: Levels of STAT5 and pSTAT5 were quantitated via western blot. Each lane represents an individual sample.
Another data set relates to pSTAT3. Description: Activity against pSTAT3 (another experiment).
Data set [3] relates to pro-inflammatory cytokines in paw extracts. Briefly: CAIA model, paw cytokines (Luminex bead assay). Format: in vivo, female DBA/1 mice.
Procedure: DBA/1 female mice were injected i.v. with purified anti-collagen type II antibodies, then given 25 μg of LPS i.p. three days later to induce arthritis by day 5. Mice that met the arthritis criteria score of 1 per paw were entered into the study.
The cytokines were measured using known procedures [32].
Briefly, the front (including carpus) and back (including tarsus) right paws were collected and frozen in dry-ice cooled isopentane and stored at −80° C. until use. The paws were cut to 2 mm×2 mm segments and kept on dry-ice in round bottom polypropylene tubes. Seven hundred microliters tissue extraction buffer containing protease inhibitor cocktail (Calbiochem, San Diego, Calif.) and Halt phosphatase inhibitor cocktail (Thermo Scientific, Rockford, Ill.) or Roche phosphatase inhibitor cocktail (Roche, Indianapolis, Ind.) in tissue extraction reagent I (Invitrogen, Carlesbad, Calif.) were added to each sample. Samples were homogenized frozen using a PT 10-35 Polytron homogenizer. After homogenization, samples were centrifuged at 4° C. for 2000×g for 10 minutes and supernatants re-centrifuged at 4° C. at maximum speed, 14,000×g, for 15 minutes. Supernatants were carefully removed to avoid picking up the top layer of lipids/adipose debris. Protein concentration was measured using a BCA protein assay (Pierce, Rockford, Ill.) and adjusted to 3 mg/ml. A minimum of 25 μl of this extraction was used in the above described protocol using the mouse cytokine 10-plex bead kit (Invitrogen, Carlsbad, Calif.) or phosphorylated STAT1, 3, 5a/b, 3-plex kit (Invitrogen, Carlsbad, Calif.).
The subject of data set [4] is collagen-antibody-induced arthritis (CAIA). Briefly: CAIA model, joint histopathology scores. The class given is in vivo, female DBA/1 mice. As to conditions: compared to vehicle controls.
Procedure: Tissues were also stained with Safranin-O to evaluate matrix degeneration. Five representative mice from each group were sent for histological analysis and graded according to a scoring method described herein. The data in the figures represent mean±SEM, all statistics were performed using Prism® software and 2-way ANOVA analysis. H&E and Safranin-O stained paraffin wax embedded carpus and tarsus sections were scored by a board certified, independent pathologist for the criteria described in the materials and methods. Tabulated data represent mean±SD (standard deviation) values for the tarsus only. Statistics were performed using 2-way ANOVA analysis, *p<0.05; **p<0.01; ***p<0.001, N=5 mice per group tested. At the end of each experiment, front and hind paws (including carpus and tarsus) were removed from the body of the animal for histological analysis. Skin from the ends of the digits was removed and the metatarsal region skin perforated using surgical scissors to allow full decalcification. […] After 7-10 days of decalcification, samples were washed for 2 hours in distilled water and stored in 70% ethanol at 4° C. until ready to be processed. […] A total of five mice from each group were analyzed via histopathology, 10× representative images are shown for each group tested.
Data set [5] can be described thus: CAIA model, total body mass. Format: in vivo, female DBA/1 mice. Particulars: all doses. The method, then: FIG. 3E: Depicts the effect of treatment on total body mass in a CAIA model
Acclimated mice were randomized, pre-bled and measured for baseline inflammation before any studies were initiated. On day 0, DBA/1 female mice were injected i.v. with […] of a saline solution containing 1.5 mg of a 10 mg/ml cocktail of arthritogenic monoclonal antibodies directed against different epitopes of collagen type II (Chondrex, Redmond, Wash.) suspended in saline. On day 3, mice were injected with 100 μl of 50 μg of E. coli 0111:B4 LPS (0.5 mg/ml stock) (Chondrex, Redmond, Wash.) i.p. and provided with gel food during recovery. Two days post-LPS treatment monitoring of arthritic paws began; peak arthritis usually occurred 2-3 days following LPS treatment. […] Arthritis clinical score tables can be found described elsewhere. […] All samples were kept at −80° C. until ready to assay. At about 4 weeks, mice were harvested for spleen, serum and arthritic paws for STAT and cytokine quantitation and histological analysis. […]

For data set [6], the system named is CB11-specific, IFNγ secreting T cells. Briefly: CIA model, ex vivo IFNγ T-cell Elispot of splenocytes. Format: in vivo, female DBA/1 mice. Particulars: four weeks. An excerpt:
FIG. 4D: Depicts IFNγ Elispot® results from stimulated splenocytes from treated mice challenged with collagen type II fragment (CB11), OVA or media alone. The Elispot images shown in the figure are representative of each treatment group and the bar graph represents data using four mice from each treatment group. Spots were counted using a C.T.L. Immunospot Elispot scanner and spot counting software.
For CIA experiments, Millipore nitrocellulose IP filter plates (Millipore, Billerica, Mass.) were coated with either anti-mouse IFNγ (AN18, MabTech, Mariemont, Ohio) or anti-mouse IL-4 (11B11, eBioscience, San Diego, Calif.) at 7 μg/ml or 2 μg/ml, respectively, in sterile PBS at 60 μl per well and incubated for 3 hours at RT or overnight at 4° C. Coated wells were washed with PBS plus 0.1% Tween-20 and patted semi-dry before blocking using complete media for at least 1 hour before use. Purified mouse collagen type II (Chrondrex, Redmond, Wash.), type I (Chrondrex, Redmond, Wash.) or third party control chicken ovalbumin (OVA) (Sigma, St. Louis, Mo.) were used to challenge 1 million processed splenocytes per well at 10 μg/ml of total antigen concentration. Media alone were used as background controls, OVA as third party controls and PMA plus Ionomycin as positive controls for IFNγ and IL-4 release by Th1 and Th2 cells, respectively.

Chain of Src kinase (P12931 whole entry): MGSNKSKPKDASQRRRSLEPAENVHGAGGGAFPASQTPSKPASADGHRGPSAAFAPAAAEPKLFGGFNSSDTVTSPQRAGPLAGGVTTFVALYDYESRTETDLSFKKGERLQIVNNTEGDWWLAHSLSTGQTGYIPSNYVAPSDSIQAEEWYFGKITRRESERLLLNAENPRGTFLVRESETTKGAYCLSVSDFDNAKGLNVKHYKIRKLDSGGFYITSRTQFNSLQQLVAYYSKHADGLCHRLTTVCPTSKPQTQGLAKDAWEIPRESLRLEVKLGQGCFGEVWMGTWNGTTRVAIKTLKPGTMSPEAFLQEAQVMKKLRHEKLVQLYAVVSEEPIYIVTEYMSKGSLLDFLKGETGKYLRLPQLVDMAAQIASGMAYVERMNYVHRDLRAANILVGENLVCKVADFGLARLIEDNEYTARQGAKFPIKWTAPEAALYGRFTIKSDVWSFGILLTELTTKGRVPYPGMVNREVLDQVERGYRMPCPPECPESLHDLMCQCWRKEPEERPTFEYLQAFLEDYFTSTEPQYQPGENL
Procedure for Src kinase: The ability of Compound A to inhibit other members of the kinome was also assessed using binding assays for a panel of 402 kinases [25].

For `CN1CCN(c2cccc(Nc3nc4c(-c5ccc(S(C)(=O)=O)cc5)cccn4n3)c2)CC1` [Compound A, [8-(4-Methanesulfonyl-phenyl)-[1,2,4]triazolo[1,5-a]pyridin-2-yl]-[3-(4-methyl-piperazin-1-yl)-phenyl]-amine], in the data set with panel of 402 kinases (402 kinases), the “share of the panel inhibited by >90%” value was 9% and the “share of the panel inhibited by >99%” value is given as 1%. For the same molecule, in the data set with panel of 402 kinases (score of Karaman et al), the “selectivity score S(90)402” value was found to be 0.09 and the “selectivity score S(99)402” value came to 0.01. In addition, on Src kinase, the “activity against Src in profiling panel” value is on record as “lacked activity”. In data set [1], the “inhibition of JAK2, phosphorylation of STAT5” value is given as “shown to inhibit JAK2 in HEL92 cells”. In [2], the “inhibition of JAK2 in vivo (pSTAT5/STAT5)” value is reported as “inhibit JAK2 in vivo”. The “activity against pSTAT3” value with pSTAT3 is reported as “exhibited some activity against pSTAT3”. For the same molecule, the “paw IL-6 concentration” value in data set [3] (CAIA experiment, 4 hours post dosing, p<0.05) is on record as “reduction in paw IL-6”. Moreover, the “level of pro-inflammatory cytokines in paw extracts” value in data set [3] (CAIA, 55 mg/kg) is “significantly reduced the level of several of the cytokines”. Besides, in data set [3] (CAIA, 55 mg/kg, p<0.01 vs vehicle), the “cytokine suppression over the study (IL-1β, IL-6, TNFα, IL-12)” value was “lowered and sustained cytokine suppression for the remainder of the study”. In data set [3] (CAIA, 100 mg/kg), the “level of pro-inflammatory cytokines in paw extracts” value was “significantly reduced the level of several of the cytokines”. In addition, in data set [3] (CAIA, 30, 55 and 100 mg/kg, especially GM-CSF, IL-12, IL-2, IL-4), the “dose dependence of cytokine reduction in paw extracts” value is “Dose-dependent reductions were observed for all cytokines tested”. For the same molecule, the “paw cytokine expression compared with Dex group” value in data set [3] (CAIA, several of the cytokines tested, p<0.05 vs vehicle) is reported as “significantly decreased cytokine expression below the levels observed in the Dex treatment group”. Further, the “histopathology parameters (matrix erosions, subchondral osteolysis, osteoproliferation, synovial proliferation, pannus formation, degree of inflammation)” value in [4] was “significantly decrease several parameters”. The total body mass result in data set [5] is given as “not significantly different from that of vehicle-treated animals”. Also, the “frequency of CB11-specific, IFNγ secreting T cells” value in data set [6] (55 mg/kg b.i.d. p.o.) is reported as “significant reduction in the frequency of CB11-specific, IFNγ secreting T cells”. Besides, in data set [6] (100 mg/kg b.i.d. p.o.), the “frequency of CB11-specific, IFNγ secreting T cells” value is on record as “significant reduction in the frequency of CB11-specific, IFNγ secreting T cells”.
